The record followed here is PubChem BioAssay (NCI).

Test systems include SN12C renal; UO-31 renal; OVCAR-5 ovarian; TK-10 renal; SR leukemia; SNB-19 CNS; NCI-H460 lung; K-562 leukemia; ACHN renal; COLO 205 colon; NCI-H226 lung; UACC-62 melanoma; U251 CNS; KM20L2 colon; RXF 393 renal; SNB-75 CNS; HOP-92 NSCLC; MDA-MB-231 breast; DU-145 prostate; NCI/ADR-RES ovarian.
What all share (assay): NCI anticancer screen, dose series, 48 h

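Grown in 96-well plates, cells were treated for 48 hours with each compound at five concentrations. Insufficient inhibition: endpoint recorded as highest concentration tested. TGI is the concentration that stops growth completely.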 Bounds are passed on as bounds.

Consider `O=C1C[C@@H]2[C@@H](c3ccccc3)[C@@H]3C(=O)c4ccccc4NC(=O)[C@H]3[C@]2(O)c2ccccc2N1`, for which the TGI in the experiment with SN12C renal, in the experiment on UO-31 renal, in the experiment with OVCAR-5 ovarian, in the experiment with TK-10 renal, with SR leukemia and with SNB-19 CNS was greater than 100 µM each time. In addition, the TGI in the experiment with NCI-H460 lung, in the experiment on K-562 leukemia, with ACHN renal, in the experiment on COLO 205 colon, with NCI-H226 lung and in the experiment on UACC-62 melanoma was greater than 100 µM throughout. In addition, the TGI with U251 CNS, with KM20L2 colon, in the experiment with RXF 393 renal and with SNB-75 CNS was greater than 100 µM throughout.
With `CC(C)=CCC/C(C)=C/Cc1c(O)c(C)cc2c1[nH]c1cc(O)ccc12`, the TGI with SN12C renal, in the experiment with UO-31 renal, in the experiment with OVCAR-5 ovarian, in the experiment with TK-10 renal, with SR leukemia and in the experiment with HOP-92 NSCLC was greater than 25 µM each time. Also, the TGI in the experiment on SNB-19 CNS, in the experiment with NCI-H460 lung, with K-562 leukemia, in the experiment on ACHN renal, in the experiment on COLO 205 colon and in the experiment with NCI-H226 lung was greater than 25 µM in each case. Besides, the TGI in the experiment on UACC-62 melanoma, in the experiment on U251 CNS, in the experiment with KM20L2 colon and in the experiment with RXF 393 renal was greater than 25 µM in each case.
For `O=c1[nH]nc(-c2ccccc2)n1-c1cccc([N+](=O)[O-])c1`, the TGI with SN12C renal, with UO-31 renal, in the experiment with MDA-MB-231 breast, in the experiment with OVCAR-5 ovarian, in the experiment on TK-10 renal and in the experiment with SR leukemia was greater than 100 µM each time. The TGI in the experiment on HOP-92 NSCLC, in the experiment with SNB-19 CNS, in the experiment on NCI-H460 lung, in the experiment with K-562 leukemia, with ACHN renal and with COLO 205 colon was greater than 100 µM in each case. The TGI with NCI-H226 lung, in the experiment with DU-145 prostate, with UACC-62 melanoma, in the experiment with U251 CNS, in the experiment with NCI/ADR-RES ovarian and in the experiment on RXF 393 renal was greater than 100 µM throughout. The molecule further showed a TGI in the experiment with SNB-75 CNS greater than 100 µM.
On to `CC(NP(=O)(c1ccccc1)c1ccccc1)c1ccccc1` (stereo not drawn), for which the TGI in the experiment with SN12C renal, in the experiment with UO-31 renal, in the experiment on MDA-MB-231 breast, in the experiment on OVCAR-5 ovarian, in the experiment on TK-10 renal and with SR leukemia was greater than 100 µM in each case. The TGI with HOP-92 NSCLC, in the experiment with SNB-19 CNS, in the experiment with NCI-H460 lung, in the experiment on K-562 leukemia, in the experiment with ACHN renal and in the experiment with COLO 205 colon was greater than 100 µM each time. The TGI in the experiment on NCI-H226 lung, in the experiment with DU-145 prostate, in the experiment with UACC-62 melanoma, in the experiment with U251 CNS, with NCI/ADR-RES ovarian and in the experiment on RXF 393 renal was greater than 100 µM in each case. Moreover, in the experiment on SNB-75 CNS, the TGI is greater than 100 µM.
As for `CSC1(C(=O)O)C2CCC3C2CCC31` (stereo not drawn), the TGI in the experiment with SN12C renal, with UO-31 renal, in the experiment on MDA-MB-231 breast, with OVCAR-5 ovarian, with TK-10 renal and in the experiment with SR leukemia was greater than 100 µM each time. Further, the TGI in the experiment on HOP-92 NSCLC, in the experiment on SNB-19 CNS, with NCI-H460 lung, in the experiment with K-562 leukemia, in the experiment on ACHN renal and with COLO 205 colon was greater than 100 µM throughout. For the same molecule, the TGI in the experiment with NCI-H226 lung, in the experiment on DU-145 prostate, in the experiment with UACC-62 melanoma, with U251 CNS, in the experiment on NCI/ADR-RES ovarian and in the experiment with RXF 393 renal was greater than 100 µM each time. For the same molecule, the TGI with SNB-75 CNS was greater than 100 µM.
Take `Cc1cccc(Nc2nc3ccccc3nc2NS(=O)(=O)c2ccccc2)c1`: the TGI was greater than 100 µM with SN12C renal; 59 µM in the experiment on UO-31 renal; greater than 100 µM with MDA-MB-231 breast; greater than 100 µM with OVCAR-5 ovarian; greater than 100 µM in the experiment with TK-10 renal; greater than 100 µM with SR leukemia. In addition, the TGI in the experiment with HOP-92 NSCLC was 63.7 µM; in the experiment with SNB-19 CNS, 91.5 µM; with NCI-H460 lung, 51.4 µM; in the experiment on K-562 leukemia, greater than 100 µM; in the experiment with ACHN renal, greater than 100 µM; in the experiment on COLO 205 colon it was 30.7 µM. The TGI was greater than 100 µM in the experiment on NCI-H226 lung; greater than 100 µM in the experiment with DU-145 prostate; greater than 100 µM in the experiment on UACC-62 melanoma; 59 µM in the experiment with U251 CNS; greater than 100 µM in the experiment on NCI/ADR-RES ovarian; greater than 100 µM in the experiment with RXF 393 renal. The molecule also showed a TGI in the experiment with SNB-75 CNS of 63.8 µM.
